Patent publication US11802127B2, “3,4-dihydro-2,7-naphthyridine-1,6(2H,7H)-diones as MEK inhibitors” (Pfizer Inc., priority 2021, dated 2023)

Experiment: Moisture sorption analysis of solid forms
Format: physicochemical
Conditions: 25° C.
Experimental: Water sorption and desorption studies were conducted on automated vapor sorption analyzer (TA instruments Q5000 SA). The microbalance was calibrated using a 100 mg standard weight. The relative humidity sensor was calibrated at 5.0, 11.3, 32.8, 52.8, 75.3, and 84.3% RH (25° C.) using saturated salt solutions. Approximately 10-20 mg of crystalline monohydrate 8-((2-fluoro-4-(methylthio)phenyl)amino)-2-(2-hydroxyethoxy)-7-methyl-3,4-dihydro-2,7-naphthyrdine-1,6(2H,7H)-dione, Form 3 was placed in the quartz sample holder and dried at ≤3% relative humidity (RH) at 25° C. […] A maximum equilibration time of 120 minutes was used for all steps. The weight gain at each of the % RH steps is based on the weight after the initial drying step at 0% RH. The weight change of the sample was not used to assess equilibrium and instead all steps were programed to be 120 minutes. After data collection was complete, data analysis was performed using commercially available TA universal analysis software and Microsoft Excel.
FIG. 5 depicts the sorption isotherm of crystalline monohydrate 8-((2-fluoro-4-(methylthio)phenyl)amino)-2-(2-hydroxyethoxy)-7-methyl-3,4-dihydro-2,7-naphthyridine-1,6(2H,7H)-dione, Form 3. […] Crystalline anhydrous 8-((2-fluoro-4-(methylthio)phenyl)amino)-2-(2-hydroxyethoxy)-7-methyl-3,4-dihydro-2,7-naphthyridine-1,6(2H,7H)-dione, Form 2 rehydrates to crystalline monohydrate 8-((2-fluoro-4-(methylthio)phenyl)amino)-2-(2-hydroxyethoxy)-7-methyl-3,4-dihydro-2,7-naphthyridine-1,6(2H,7H)-dione, Form 3 at 25% RH at 25° C. as confirmed by PXRD analysis. Based on this analysis, crystalline anhydrous 8-((2-fluoro-4-(methylthio)phenyl)amino)-2-(2-hydroxyethoxy)-7-methyl-3,4-dihydro-2,7-naphthyridine-1,6(2H,7H)-dione, Form 2 is stable below 10% RH at 25° C., and crystalline monohydrate 8-((2-fluoro-4-(methylthio)phenyl)amino)-2-(2-hydroxyethoxy)-7-methyl-3,4-dihydro-2,7-naphthyridine-1,6(2H,7H)-dione, Form 3 is stable above 30% RH at 25° C.

Row | relative humidity at which the solid form is stable | relative humidity at which anhydrous Form 2 rehydrates to monohydrate Form 3 (confirmed by PXRD) | relative humidity at which monohydrate Form 3 dehydrates to anhydrous Form 2 (confirmed by PXRD) | Structure (SMILES)
1 | below 10 % RH | 25 % RH | – | CSc1ccc(Nc2c3c(cc(=O)n2C)CCN(OCCO)C3=O)c(F)c1 [Form 2, 8-((2-fluoro-4-(methylthio)phenyl)amino)-2-(2-hydroxyethoxy)-7-methyl-3,4-dihydro-2,7-naphthyridine-1,6(2H,7H)-dione]
2 | above 30 % RH | – | 15 % RH | CSc1ccc(Nc2c3c(cc(=O)n2C)CCN(OCCO)C3=O)c(F)c1 [Form 3, 8-((2-fluoro-4-(methylthio)phenyl)amino)-2-(2-hydroxyethoxy)-7-methyl-3,4-dihydro-2,7-naphthyridine-1,6(2H,7H)-dione]
